Experimental data taken from paper PMC6927228 (Journal of Experimental Pharmacology, 2019).

Target: Trypanosoma evansi protein-tyrosine phosphatase (PTPase)
Conditions: competitive; substrate pNPP; 25 mM HEPES pH 7.3, 10% glycerol, no EDTA; 37 °C

## [O]=[V]([OH])([OH])[OH] [sodium orthovanadate]
  Ki: 200 µg/mL
